In PubChem BioAssay (NCI):
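GI50: concentration for 50% inhibition of growth. TGI is the concentration that stops growth completely.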

Tests used:
Experiment in all cases: growth of human tumour cells (NCI), 384-well format
EKVX NSCLC = tested on: EKVX NSCLC
SF-539 CNS = tested on: SF-539 CNS
SK-MEL-28 melanoma = tested on: SK-MEL-28 melanoma
SK-OV-3 ovarian = tested on: SK-OV-3 ovarian
NCI-H522 lung = tested on: NCI-H522 lung
SK-MEL-5 melanoma = tested on: SK-MEL-5 melanoma
HOP-62 NSCLC = tested on: HOP-62 NSCLC
SW-620 colon = tested on: SW-620 colon
IGROV1 ovarian = tested on: IGROV1 ovarian
SN12C renal = tested on: SN12C renal
ACHN renal = tested on: ACHN renal
HCT-15 colon = tested on: HCT-15 colon
786-0 renal = tested on: 786-0 renal
UO-31 renal = tested on: UO-31 renal
MCF7 breast = tested on: MCF7 breast
TK-10 renal = tested on: TK-10 renal
NCI-H226 lung = tested on: NCI-H226 lung
RXF 393 renal = tested on: RXF 393 renal
COLO 205 colon = tested on: COLO 205 colon
K-562 leukemia = tested on: K-562 leukemia
MDA-MB-435 melanoma = tested on: MDA-MB-435 melanoma
UACC-257 melanoma = tested on: UACC-257 melanoma
PC-3 prostate = tested on: PC-3 prostate
OVCAR-5 ovarian = tested on: OVCAR-5 ovarian
T-47D breast = tested on: T-47D breast
SR leukemia = tested on: SR leukemia
SNB-19 CNS = tested on: SNB-19 CNS
MALME-3M melanoma = tested on: MALME-3M melanoma
SNB-75 CNS = tested on: SNB-75 CNS
OVCAR-4 ovarian = tested on: OVCAR-4 ovarian
OVCAR-8 ovarian = tested on: OVCAR-8 ovarian
DU-145 prostate = tested on: DU-145 prostate
SF-268 CNS = tested on: SF-268 CNS
A549 NSCLC = tested on: A549 NSCLC
A498 renal = tested on: A498 renal
HCT-116 colon = tested on: HCT-116 colon
NCI-H23 lung = tested on: NCI-H23 lung
HOP-92 NSCLC = tested on: HOP-92 NSCLC
NCI-H322M lung = tested on: NCI-H322M lung
MOLT-4 leukemia = tested on: MOLT-4 leukemia
HT29 colon = tested on: HT29 colon
U251 glioblastoma = tested on: U251 glioblastoma
BT-549 breast = tested on: BT-549 breast
MDA-MB-468 breast = tested on: MDA-MB-468 breast
HS 578T breast = tested on: HS 578T breast
MDA-MB-231 breast = tested on: MDA-MB-231 breast
UACC-62 melanoma = tested on: UACC-62 melanoma
HL-60(TB) leukemia = tested on: HL-60(TB) leukemia
CAKI-1 renal = tested on: CAKI-1 renal
KM12 colon = tested on: KM12 colon
SK-MEL-2 melanoma = tested on: SK-MEL-2 melanoma
OVCAR-3 ovarian = tested on: OVCAR-3 ovarian
NCI-H460 NSCLC = tested on: NCI-H460 NSCLC
SF-295 CNS = tested on: SF-295 CNS
M14 melanoma = tested on: M14 melanoma

## CCOC(=O)[C@@H](N)CCC(=O)N[C@@H](CSCc1ccccc1)C(=O)N[C@@H](C(=O)OCC)c1ccccc1
EKVX NSCLC
  GI50: 20.4 µM
  TGI: 43.6 µM
SF-539 CNS
  GI50: 12.5 µM
  TGI: 25.1 µM
SK-MEL-28 melanoma
  GI50: 16.5 µM
  TGI: 30.1 µM
SK-OV-3 ovarian
  GI50: 13.9 µM
  TGI: 26.9 µM
NCI-H522 lung
  GI50: 14.4 µM
  TGI: 27.6 µM
SK-MEL-5 melanoma
  GI50: 15.3 µM
  TGI: 29 µM
HOP-62 NSCLC
  GI50: 9.1 µM
  TGI: 24 µM
SW-620 colon
  GI50: 9.33 µM
  TGI: 21.4 µM
IGROV1 ovarian
  GI50: 13 µM
  TGI: 25.9 µM
SN12C renal
  GI50: 15 µM
  TGI: 28.3 µM
ACHN renal
  GI50: 8.55 µM
  TGI: 20.9 µM
HCT-15 colon
  GI50: 20.1 µM
  TGI: 40.8 µM
786-0 renal
  GI50: 12.3 µM
  TGI: 24.8 µM
UO-31 renal
  GI50: 38.6 µM
  TGI: > 100 µM
MCF7 breast
  GI50: 5.51 µM
  TGI: 19 µM
TK-10 renal
  GI50: 14.5 µM
  TGI: 27.9 µM
NCI-H226 lung
  GI50: 11.8 µM
  TGI: 25.6 µM
RXF 393 renal
  GI50: 10.8 µM
  TGI: 22.7 µM
COLO 205 colon
  GI50: 11.5 µM
  TGI: 23.8 µM
K-562 leukemia
  GI50: 10.6 µM
  TGI: 22.7 µM
MDA-MB-435 melanoma
  GI50: 17.3 µM
  TGI: 31.2 µM
UACC-257 melanoma
  GI50: 16.9 µM
  TGI: 30.6 µM
PC-3 prostate
  GI50: 14.8 µM
  TGI: 28.1 µM
OVCAR-5 ovarian
  GI50: 32.3 µM
  TGI: > 100 µM
T-47D breast
  GI50: 15.5 µM
  TGI: 29 µM
SR leukemia
  GI50: 1.82 µM
  TGI: 3.43 µM
SNB-19 CNS
  GI50: 15.7 µM
  TGI: 30.3 µM
MALME-3M melanoma
  GI50: 16.4 µM
  TGI: 30.1 µM
SNB-75 CNS
  GI50: 12.2 µM
  TGI: 24.7 µM
OVCAR-4 ovarian
  GI50: 16 µM
  TGI: 31.4 µM
OVCAR-8 ovarian
  GI50: 10.8 µM
  TGI: 22.8 µM
DU-145 prostate
  GI50: 19.2 µM
  TGI: 45.3 µM
SF-268 CNS
  GI50: 10.5 µM
  TGI: 22.4 µM
A549 NSCLC
  GI50: 25.3 µM
  TGI: > 100 µM
A498 renal
  GI50: 11.6 µM
  TGI: 24.1 µM
HCT-116 colon
  GI50: 5.21 µM
  TGI: 17 µM
NCI-H23 lung
  GI50: 16.2 µM
  TGI: 32.5 µM
HOP-92 NSCLC
  GI50: 10.4 µM
  TGI: 22.2 µM
NCI-H322M lung
  GI50: 18.1 µM
  TGI: 60 µM
MOLT-4 leukemia
  GI50: 2.01 µM
  TGI: 3.57 µM
HT29 colon
  GI50: 8.24 µM
  TGI: 20.7 µM
U251 glioblastoma
  GI50: 11.2 µM
  TGI: 23.5 µM
BT-549 breast
  GI50: 17.5 µM
  TGI: 31.3 µM
MDA-MB-468 breast
  GI50: 5.45 µM
  TGI: 17.2 µM
HS 578T breast
  GI50: 15.3 µM
  TGI: 28.6 µM
MDA-MB-231 breast
  GI50: 11.9 µM
  TGI: 24.2 µM
UACC-62 melanoma
  GI50: 10.5 µM
  TGI: 22.4 µM
HL-60(TB) leukemia
  GI50: 18.5 µM
  TGI: 32.6 µM
CAKI-1 renal
  GI50: 8.03 µM
  TGI: 20.4 µM
KM12 colon
  GI50: 6.17 µM
  TGI: 18.5 µM
SK-MEL-2 melanoma
  GI50: 15.5 µM
  TGI: 29 µM
OVCAR-3 ovarian
  GI50: 13.5 µM
  TGI: 26.4 µM
NCI-H460 NSCLC
  GI50: 7.59 µM
  TGI: 20.1 µM
SF-295 CNS
  GI50: 13.1 µM
  TGI: 26.1 µM
M14 melanoma
  GI50: 16.8 µM
  TGI: 30.4 µM
